Reference: US20250152675A1, “I-TYPE RECOMBINANT COLLAGEN WITH HIGH TRANSDERMAL ABSORBABILITY, AND USE THEREOF” (XI'AN GIANT BIOGENE TECHNOLOLGY CO., LTD, priority 2022, published 2025)
Residues, ends and D or L forms follow the SMILES beside them.

Test: Transdermal penetration through ex vivo mouse skin in a single-chamber diffusion cell, content by BCA kit
Assay type: in vitro ADME, Kunming mice
Conditions: collagen peptide 5 mg/ml in 0.9% NaCl, diffusion area 2.0 cm^2, 37.5° C.
Method: 1. Preparation of Mouse Skin Ex Vivo 10 Kunming mice of 20 to 22 g with half male and half […] were used in the experiment. After the mice were killed, the hairs on the abdomen were removed. Then the skin on the hair-removed area was peeled off, stripped of fat and tendons, and rinsed repeatedly with distilled water. After being washed, the mouse skins were rinsed with normal saline, then treated with 10% glycerol, and stored at −20° C. for use (use up within 7 days).
Single-chamber diffusion cell: The effective diffusion area of the diffusion cell is 2.0 cm^2, the volume of the receiving cell is 14 ml, the length of the custom-made stirrer is 1.4 cm, and the receiving solution is 0.9% NaCl solution.
The stored mouse skin was taken out, thawed, washed with normal saline, and sandwiched between the receiving chamber and the supplying chamber, with the medicated side facing the supplying chamber and the skin side facing the receiving chamber. The temperature of the water bath system was adjusted to 37.5° C., and the stirring speed was adjusted to 100 rpm/min. 0.9% NaCl solution pre-warmed at 37° C. was added to the receiving chamber and the air bubbles were exhausted, in order to reduce the interference, the inner surface of the mouse skin was firstly contacted with the receiving solution without medication and all the receiving solution was replaced. Then the 27 collagen peptides synthesized were prepared into 5 mg/ml solutions using 0.9% NaCl respectively, which were injected into the supplying chamber and firmly adhere to the mouse skin respectively. After 24 h, part of the receiving solution was absorbed with a syringe as the sample solution to determine the transdermal amount of collagen peptide.
The BCA kit method was used to determine the polypeptide content in the sample solution. […]

Compound	24h penetration amount [µg]
CC(C)C[C@H](NC(=O)CNC(=O)[C@@H](NC(=O)[C@@H](NC(=O)CN)C(C)C)C(C)C)C(=O)N1CCC[C@H]1C(=O)NCC(=O)N[C@@H](CCC(N)=O)C(=O)N[C@@H](CCCNC(=N)N)C(=O)NCC(=O)N[C@@H](CCC(=O)O)C(=O)N[C@@H](CCCNC(=N)N)C(=O)NCC(=O)N[C@@H](Cc1ccccc1)C(=O)N1CCC[C@H]1C(=O)NCC(=O)N[C@@H](CC(C)C)C(=O)N1CCC[C@H]1C(=O)NCC(=O)N1CCC[C@H]1C(=O)N[C@@H](CO)C(=O)NCC(=O)N[C@@H](CCC(=O)O)C(=O)N1CCC[C@H]1C(=O)NCC(=O)N[C@@H](CCCCN)C(=O)N[C@@H](CCC(N)=O)C(=O)NCC(=O)N1CCC[C@H]1C(=O)N[C@@H](CO)C(=O)NCC(=O)N[C@@H](C)C(=O)N[C@@H](CO)C(=O)NCC(=O)N[C@@H](CCC(=O)O)C(=O)N[C@@H](CCCNC(=N)N)C(=O)O [compound 22] (H-GVVGLPGQRGERGFPGLPGPSGEPGKQGPSGASGER-OH; N-terminus and C-terminus assumed)	2092.23
CSCC[C@H](NC(=O)CNC(=O)[C@H](CCC(N)=O)NC(=O)[C@H](CC(C)C)NC(=O)CNC(=O)[C@@H]1CCCN1C(=O)[C@H](C)NC(=O)CNC(=O)[C@H](CCC(N)=O)NC(=O)[C@H](CO)NC(=O)CNC(=O)[C@@H]1CCCN1C(=O)[C@H](C)NC(=O)CNC(=O)[C@@H]1CCCN1C(=O)[C@H](C)NC(=O)CN)C(=O)N1CCC[C@H]1C(=O)NCC(=O)N[C@@H](CCC(=O)O)C(=O)N[C@@H](CCCNC(=N)N)C(=O)NCC(=O)N[C@@H](C)C(=O)N[C@@H](C)C(=O)NCC(=O)N[C@@H](CC(C)C)C(=O)N1CCC[C@H]1C(=O)NCC(=O)N1CCC[C@H]1C(=O)N[C@@H](CCCCN)C(=O)NCC(=O)N[C@@H](CC(=O)O)C(=O)N[C@@H](CCCNC(=N)N)C(=O)NCC(=O)N[C@@H](CC(=O)O)C(=O)N[C@@H](C)C(=O)O [compound 17] (H-GAPGAPGSQGAPGLQGMPGERGAAGLPGPKGDRGDA-OH; N-terminus and C-terminus assumed)	2998.75
CC(C)C[C@H](NC(=O)CNC(=O)[C@H](CCCNC(=N)N)NC(=O)[C@@H](NC(=O)CNC(=O)[C@H](CC(=O)O)NC(=O)[C@H](CCCCN)NC(=O)CNC(=O)[C@@H]1CCCN1C(=O)[C@H](CO)NC(=O)CNC(=O)[C@H](CC(=O)O)NC(=O)[C@H](C)NC(=O)CNC(=O)[C@H](CCCCN)NC(=O)[C@@H]1CCCN1C(=O)CNC(=O)[C@H](C)NC(=O)[C@H](CC(=O)O)NC(=O)CNC(=O)[C@H](CCCNC(=N)N)NC(=O)[C@H](CC(=O)O)NC(=O)CNC(=O)[C@H](CCCCN)NC(=O)[C@@H]1CCCN1C(=O)CNC(=O)[C@@H]1CCCN1C(=O)[C@H](CC(C)C)NC(=O)CNC(=O)[C@H](C)NC(=O)[C@H](C)NC(=O)CNC(=O)[C@H](CCCNC(=N)N)NC(=O)[C@H](CCC(=O)O)NC(=O)CN)C(C)C)C(=O)N[C@H](C(=O)O)[C@@H](C)O [compound 18] (H-GERGAAGLPGPKGDRGDAGPKGADGSPGKDGVRGLT-OH; N-terminus and C-terminus assumed)	2309.24
CSCC[C@H](NC(=O)CNC(=O)[C@H](CCC(N)=O)NC(=O)[C@H](CC(C)C)NC(=O)CNC(=O)[C@@H]1CCCN1C(=O)[C@H](C)NC(=O)CNC(=O)[C@H](CCC(N)=O)NC(=O)[C@H](CO)NC(=O)CNC(=O)[C@@H]1CCCN1C(=O)[C@H](C)NC(=O)CNC(=O)[C@@H]1CCCN1C(=O)[C@H](C)NC(=O)CNC(=O)[C@H](C)NC(=O)[C@H](CC(=O)O)NC(=O)CNC(=O)[C@H](CCCCN)NC(=O)[C@H](C)NC(=O)CNC(=O)[C@H](CC(=O)O)NC(=O)[C@H](CC(N)=O)NC(=O)CNC(=O)[C@@H]1CCCN1C(=O)[C@H](C)NC(=O)CNC(=O)[C@H](CC(N)=O)NC(=O)[C@H](C)NC(=O)CN)C(=O)N1CCC[C@H]1C(=O)NCC(=O)N[C@@H](CCC(=O)O)C(=O)N[C@@H](CCCNC(=N)N)C(=O)O [compound 16] (H-GANGAPGNDGAKGDAGAPGAPGSQGAPGLQGMPGER-OH; N-terminus and C-terminus assumed)	2034.34
CSCC[C@H](NC(=O)[C@@H](NC(=O)CNC(=O)[C@H](C)NC(=O)[C@H](CCC(N)=O)NC(=O)CNC(=O)[C@H](CCCNC(=N)N)NC(=O)[C@H](C)NC(=O)CNC(=O)[C@@H]1CCCN1C(=O)[C@@H]1CCCN1C(=O)CNC(=O)[C@@H]1CCCN1C(=O)[C@@H]1CCCN1C(=O)CNC(=O)[C@@H]1CCCN1C(=O)[C@H](CCCNC(=N)N)NC(=O)CN)C(C)C)C(=O)NCC(=O)N[C@@H](Cc1ccccc1)C(=O)N1CCC[C@H]1C(=O)NCC(=O)N1CCC[C@H]1C(=O)N[C@@H](CCCCN)C(=O)NCC(=O)N[C@@H](C)C(=O)N[C@@H](C)C(=O)NCC(=O)N[C@@H](CCC(=O)O)C(=O)N1CCC[C@H]1C(=O)NCC(=O)N[C@@H](CCCCN)C(=O)N[C@@H](C)C(=O)NCC(=O)N[C@@H](CCC(=O)O)C(=O)N[C@@H](CCCNC(=N)N)C(=O)O [compound 10] (H-GRPGPPGPPGARGQAGVMGFPGPKGAAGEPGKAGER-OH; N-terminus and C-terminus assumed)	2290.34
CC(C)C[C@H](NC(=O)[C@H](CC(=O)O)NC(=O)CNC(=O)[C@@H]1CCCN1C(=O)[C@@H](NC(=O)CN)C(C)C)C(=O)NCC(=O)N[C@@H](C)C(=O)N1CCC[C@H]1C(=O)NCC(=O)N1CCC[C@H]1C(=O)N[C@@H](CO)C(=O)NCC(=O)N[C@@H](C)C(=O)N[C@@H](CCCNC(=N)N)C(=O)NCC(=O)N[C@@H](CCC(=O)O)C(=O)N[C@@H](CCCNC(=N)N)C(=O)NCC(=O)N[C@@H](Cc1ccccc1)C(=O)N1CCC[C@H]1C(=O)NCC(=O)N[C@@H](CCC(=O)O)C(=O)N[C@@H](CCCNC(=N)N)C(=O)NCC(=O)N[C@H](C(=O)N[C@@H](CCC(N)=O)C(=O)NCC(=O)N1CCC[C@H]1C(=O)N1CCC[C@H]1C(=O)NCC(=O)N1CCC[C@H]1C(=O)N[C@@H](C)C(=O)NCC(=O)N1CCC[C@H]1C(=O)N[C@@H](CCCNC(=N)N)C(=O)O)C(C)C [compound 14] (H-GVPGDLGAPGPSGARGERGFPGERGVQGPPGPAGPR-OH; N-terminus and C-terminus assumed)	2045.62
CC(C)C[C@H](NC(=O)CNC(=O)[C@@H](NC(=O)[C@@H]1CCCN1C(=O)CNC(=O)[C@@H]1CCCN1C(=O)[C@H](CCC(=O)O)NC(=O)CNC(=O)[C@H](CCCNC(=N)N)NC(=O)[C@H](C)NC(=O)CN)[C@@H](C)O)C(=O)N1CCC[C@H]1C(=O)NCC(=O)N1CCC[C@H]1C(=O)N1CCC[C@H]1C(=O)NCC(=O)N[C@@H](CCC(=O)O)C(=O)N[C@@H](CCCNC(=N)N)C(=O)NCC(=O)NCC(=O)N1CCC[C@H]1C(=O)NCC(=O)N[C@@H](CO)C(=O)N[C@@H](CCCNC(=N)N)C(=O)NCC(=O)N[C@@H](Cc1ccccc1)C(=O)N1CCC[C@H]1C(=O)NCC(=O)N[C@@H](C)C(=O)N[C@@H](CC(=O)O)C(=O)NCC(=O)N[C@H](C(=O)N[C@@H](C)C(=O)NCC(=O)N1CCC[C@H]1C(=O)N[C@@H](CCCCN)C(=O)O)C(C)C [compound 8] (H-GARGEPGPTGLPGPPGERGGPGSRGFPGADGVAGPK-OH; N-terminus and C-terminus assumed)	2013.46
